# According to patent publication US20020137929A1, “1 - (3-heterocyclylphenyl) isothiourea, -isourea, -guanidine and -amidine herbicidal agents” (Intellectual Property Department, BASF Aktiengesellschaft, priority 1998, published 2002):
# How the values were obtained:
# [1] = system: ABUTH (Velvetleaf); assay: Postemergence herbicidal evaluation; type: in vivo, Abutilon theophrasti; conditions: postemergence
# Outline: (§1)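 Seedlings grown about two weeks were sprayed at 40 psi with compound dispersed in 50/50 acetone/water plus 0.5% TWEEN 20, at about 0.0156 to 0.500 kg/ha. Plants were kept in the greenhouse and scored 4–5 weeks later on a 0–9 visual scale against untreated controls.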
# [2] = system: ORYSAT (Rice, Tebonnet); assay: Preemergence herbicidal evaluation; type: in vivo, Oryza sativa, (L.) Tebonnet; conditions: rated 4-5 weeks after treatment, rating scale 0-9
# Outline: (§2)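 Scores use a 0–9 visual scale covering stand, vigor, malformation, size and chlorosis relative to controls, rated four to five weeks after treatment. Before emergence, soil-planted seeds were sprayed with compound in aqueous acetone at roughly 0.0156–0.500 kg/ha and held in the greenhouse.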
# [3] = system: ECHCG (Barnyardgrass); assay: Preemergence herbicidal evaluation; type: in vivo, Echinochloa crus-galli; conditions: rated 4-5 weeks after treatment, rating scale 0-9
# Outline: as §2
# [4] = system: SETVI (Foxtail, Green); assay: Preemergence herbicidal evaluation; type: in vivo, Setaria viridis; conditions: rated 4-5 weeks after treatment, rating scale 0-9
# Outline: as §2
# [5] = system: TRZAWR (Wheat, Winter, cv Riband); assay: Postemergence herbicidal evaluation; type: in vivo, Triticum aestivum; conditions: postemergence
# Outline: as §1
# [6] = system: MOOVA (Monochoria); assay: Preemergence weed control under flooded paddy conditions; type: in vivo, Monochoria vaginalis; conditions: rated 3-4 weeks after treatment
# Outline: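 Seeds or propagules sown in top 0.5 cm of silt loam soil, flooded 1.5 to 3 cm above surface throughout. Compound in 50/50 v/v aqueous/acetone pipetted into flood water at about 0.0313 to 0.500 kg/ha. Visual 0-9 rating versus control after three to four weeks in greenhouse.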
# [7] = system: IPOHE (Morningglory, Ivyleaf); assay: Preemergence herbicidal evaluation; type: in vivo, Ipomoea hederacea; conditions: rated 4-5 weeks after treatment, rating scale 0-9
# Outline: as §2
# [8] = system: ECHORC (Watergrass (Calif.)); assay: Preemergence weed control under flooded paddy conditions; type: in vivo, Echinochloa oryzoides; conditions: rated 3-4 weeks after treatment
# Outline: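 First, seeds or propagules go into the top 0.5 cm of silt loam; next, water is held 1.5 to 3 cm over the soil; then compound (50/50 acetone/water) is pipetted into it at about 0.0313 to 0.500 kg/ha; finally plants are rated visually 0-9 after three to four weeks.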
# [9] = system: IPOHE (Morningglory, Ivyleaf); assay: Postemergence herbicidal evaluation; type: in vivo, Ipomoea hederacea; conditions: postemergence
# Outline: as §1
# [10] = system: TRZAWR (Wheat, Winter, cv Riband); assay: Preemergence herbicidal evaluation; type: in vivo, Triticum aestivum; conditions: rated 4-5 weeks after treatment, rating scale 0-9
# Outline: as §2
# [11] = system: CHEAL (Lambsquarters, Common); assay: Preemergence herbicidal evaluation; type: in vivo, Chenopodium album; conditions: rated 4-5 weeks after treatment, rating scale 0-9
# Outline: as §2
compound,measurement,setting,value
C=C1SC(=Nc2cc(-n3c(=O)cc(C(F)(F)F)n(C)c3=O)c(F)cc2Cl)N(CC(=O)OCC)C1=O [Compound 154],Herbicidal rating ABUTH,[1]; rate 0.0156 kg/ha,9.0
same,Herbicidal rating ABUTH,[1]; rate 0.0313 kg/ha,9.0
same,Herbicidal rating ABUTH,[1]; rate 0.0625 kg/ha,9.0
same,Preemergence herbicidal rating ORYSAT,[2]; rate 0.0156 kg/ha,3.0
same,Preemergence herbicidal rating ORYSAT,[2]; rate 0.0313 kg/ha,4.0
same,Preemergence herbicidal rating ORYSAT,[2]; rate 0.0625 kg/ha,8.0
same,Preemergence herbicidal rating ORYSAT,[2]; rate 0.1250 kg/ha,9.0
same,Preemergence herbicidal rating ORYSAT,[2]; rate 0.2500 kg/ha,9.0
same,Preemergence herbicidal rating ECHCG,[3]; rate 0.0156 kg/ha,0.0
same,Preemergence herbicidal rating ECHCG,[3]; rate 0.0313 kg/ha,4.0
same,Preemergence herbicidal rating ECHCG,[3]; rate 0.0625 kg/ha,9.0
same,Preemergence herbicidal rating ECHCG,[3]; rate 0.1250 kg/ha,9.0
same,Preemergence herbicidal rating ECHCG,[3]; rate 0.2500 kg/ha,9.0
same,Preemergence herbicidal rating SETVI,[4]; rate 0.0156 kg/ha,2.0
same,Preemergence herbicidal rating SETVI,[4]; rate 0.0313 kg/ha,7.0
same,Preemergence herbicidal rating SETVI,[4]; rate 0.0625 kg/ha,9.0
same,Preemergence herbicidal rating SETVI,[4]; rate 0.1250 kg/ha,9.0
same,Preemergence herbicidal rating SETVI,[4]; rate 0.2500 kg/ha,9.0
same,Herbicidal rating TRZAWR,[5]; rate 0.0156 kg/ha,3.5
same,Herbicidal rating TRZAWR,[5]; rate 0.0313 kg/ha,3.5
same,Herbicidal rating TRZAWR,[5]; rate 0.0625 kg/ha,4.0
same,"herbicidal effect rating, MOOVA",[6]; 0.0313 kg/ha,6.0
same,"herbicidal effect rating, MOOVA",[6]; 0.0625 kg/ha,7.0
same,"herbicidal effect rating, MOOVA",[6]; 0.1250 kg/ha,8.0
same,"herbicidal effect rating, MOOVA",[6]; 0.2500 kg/ha,9.0
same,Preemergence herbicidal rating IPOHE,[7]; rate 0.0156 kg/ha,0.0
same,Preemergence herbicidal rating IPOHE,[7]; rate 0.0313 kg/ha,9.0
same,Preemergence herbicidal rating IPOHE,[7]; rate 0.0625 kg/ha,9.0
same,Preemergence herbicidal rating IPOHE,[7]; rate 0.1250 kg/ha,9.0
same,Preemergence herbicidal rating IPOHE,[7]; rate 0.2500 kg/ha,9.0
same,"herbicidal effect rating, ECHORC",[8]; 0.0313 kg/ha,3.0
same,"herbicidal effect rating, ECHORC",[8]; 0.0625 kg/ha,4.0
same,"herbicidal effect rating, ECHORC",[8]; 0.1250 kg/ha,7.0
same,"herbicidal effect rating, ECHORC",[8]; 0.2500 kg/ha,7.0
same,Herbicidal rating IPOHE,[9]; rate 0.0156 kg/ha,9.0
same,Herbicidal rating IPOHE,[9]; rate 0.0313 kg/ha,9.0
same,Herbicidal rating IPOHE,[9]; rate 0.0625 kg/ha,9.0
same,Preemergence herbicidal rating TRZAWR,[10]; rate 0.0156 kg/ha,0.0
same,Preemergence herbicidal rating TRZAWR,[10]; rate 0.0313 kg/ha,2.0
same,Preemergence herbicidal rating TRZAWR,[10]; rate 0.0625 kg/ha,8.0
same,Preemergence herbicidal rating TRZAWR,[10]; rate 0.1250 kg/ha,8.0
same,Preemergence herbicidal rating TRZAWR,[10]; rate 0.2500 kg/ha,9.0
same,Preemergence herbicidal rating CHEAL,[11]; rate 0.0156 kg/ha,9.0
same,Preemergence herbicidal rating CHEAL,[11]; rate 0.0313 kg/ha,9.0
same,Preemergence herbicidal rating CHEAL,[11]; rate 0.0625 kg/ha,9.0
same,Preemergence herbicidal rating CHEAL,[11]; rate 0.1250 kg/ha,9.0
same,Preemergence herbicidal rating CHEAL,[11]; rate 0.2500 kg/ha,9.0
"CCOC(=O)CN1C(=O)C(COC)SC1=Nc1cc(-n2c(=O)cc(C(F)(F)F)n(C)c2=O)c(F)cc1Cl (stereo not shown) [Compound 156, Ethyl 2-{{2-chloro-5-[3,6-dihydro-3-methyl-2,6-dioxo-4-(trifluoromethyl)-1(2H)-pyrimidinyl]-4-fluorophenyl}imino}-5-(methoxymethyl)-4-oxo-3-thiazolidine-acetate]",Herbicidal rating ABUTH,[1]; rate 0.0156 kg/ha,9.0
same,Herbicidal rating ABUTH,[1]; rate 0.0313 kg/ha,9.0
same,Herbicidal rating ABUTH,[1]; rate 0.0625 kg/ha,9.0
same,Preemergence herbicidal rating ORYSAT,[2]; rate 0.0313 kg/ha,0.0
same,Preemergence herbicidal rating ORYSAT,[2]; rate 0.0625 kg/ha,0.0
same,Preemergence herbicidal rating ORYSAT,[2]; rate 0.1250 kg/ha,0.0
same,Preemergence herbicidal rating ORYSAT,[2]; rate 0.2500 kg/ha,3.0
same,Preemergence herbicidal rating ECHCG,[3]; rate 0.0313 kg/ha,0.0
same,Preemergence herbicidal rating ECHCG,[3]; rate 0.0625 kg/ha,0.0
same,Preemergence herbicidal rating ECHCG,[3]; rate 0.1250 kg/ha,0.0
same,Preemergence herbicidal rating ECHCG,[3]; rate 0.2500 kg/ha,0.0
same,Preemergence herbicidal rating SETVI,[4]; rate 0.0313 kg/ha,0.0
same,Preemergence herbicidal rating SETVI,[4]; rate 0.0625 kg/ha,2.0
same,Preemergence herbicidal rating SETVI,[4]; rate 0.1250 kg/ha,2.0
same,Preemergence herbicidal rating SETVI,[4]; rate 0.2500 kg/ha,9.0
same,Herbicidal rating TRZAWR,[5]; rate 0.0156 kg/ha,3.0
same,Herbicidal rating TRZAWR,[5]; rate 0.0313 kg/ha,3.5
same,Herbicidal rating TRZAWR,[5]; rate 0.0625 kg/ha,4.0
same,"herbicidal effect rating, MOOVA",[6]; 0.2500 kg/ha,0.0
same,Preemergence herbicidal rating IPOHE,[7]; rate 0.0313 kg/ha,0.0
same,Preemergence herbicidal rating IPOHE,[7]; rate 0.0625 kg/ha,3.0
same,Preemergence herbicidal rating IPOHE,[7]; rate 0.1250 kg/ha,9.0
same,Preemergence herbicidal rating IPOHE,[7]; rate 0.2500 kg/ha,9.0
same,"herbicidal effect rating, ECHORC",[8]; 0.2500 kg/ha,0.0
same,Herbicidal rating IPOHE,[9]; rate 0.0156 kg/ha,9.0
same,Herbicidal rating IPOHE,[9]; rate 0.0313 kg/ha,9.0
same,Herbicidal rating IPOHE,[9]; rate 0.0625 kg/ha,9.0
same,Preemergence herbicidal rating TRZAWR,[10]; rate 0.0313 kg/ha,0.0
same,Preemergence herbicidal rating TRZAWR,[10]; rate 0.0625 kg/ha,0.0
same,Preemergence herbicidal rating TRZAWR,[10]; rate 0.1250 kg/ha,0.0
same,Preemergence herbicidal rating TRZAWR,[10]; rate 0.2500 kg/ha,3.0
same,Preemergence herbicidal rating CHEAL,[11]; rate 0.0313 kg/ha,9.0
same,Preemergence herbicidal rating CHEAL,[11]; rate 0.0625 kg/ha,9.0
same,Preemergence herbicidal rating CHEAL,[11]; rate 0.1250 kg/ha,9.0
same,Preemergence herbicidal rating CHEAL,[11]; rate 0.2500 kg/ha,9.0
